Laboratory results from PubChem BioAssay AID2060883 (Molecular Pharmacology Branch, DTP, NCI, 2025).

Tested on: 843782-103-R-J1-PDC complex spheroid viability
Assay: Anticancer human tumor 843782-103-R-J1-PDC patient-derived lung adenocarcinoma cell line growth inhibition [RAS]
Conditions: for IC50: curve of first compound; for viability, T/C: stronger effect = lower value
How it was run: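 Agents were tested in combination matrices in half-log decrements from a top concentration at or near clinical Cmax (10 microM if undetermined). Targets were multi-cell spheroids of tumour lines plus HUVEC and MSC stromal cells.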

[1] = second compound 0.000949 µM, first compound 0.0316 µM
[2] = second compound 0.000949 µM, first compound 0.1 µM
[3] = second compound 0.000949 µM, first compound 0.316 µM
[4] = second compound 0.000949 µM, first compound 1 µM
[5] = second compound 0.000949 µM, first compound 3.16 µM
[6] = second compound 0.000949 µM, first compound 10 µM
[7] = second compound 0.003 µM, first compound 0.0316 µM
[8] = second compound 0.003 µM, first compound 0.1 µM
[9] = second compound 0.003 µM, first compound 0.316 µM
[10] = second compound 0.003 µM, first compound 1 µM
[11] = second compound 0.003 µM, first compound 3.16 µM
[12] = second compound 0.003 µM, first compound 10 µM
[13] = second compound 0.00949 µM, first compound 0.0316 µM
[14] = second compound 0.00949 µM, first compound 0.1 µM
[15] = second compound 0.00949 µM, first compound 0.316 µM
[16] = second compound 0.00949 µM, first compound 1 µM
[17] = second compound 0.00949 µM, first compound 3.16 µM
[18] = second compound 0.00949 µM, first compound 10 µM
[19] = second compound 0.03 µM, first compound 0.0316 µM
[20] = second compound 0.03 µM, first compound 0.1 µM
[21] = second compound 0.03 µM, first compound 0.316 µM
[22] = second compound 0.03 µM, first compound 1 µM
[23] = second compound 0.03 µM, first compound 3.16 µM
[24] = second compound 0.03 µM, first compound 10 µM
[25] = second compound 0.0949 µM, first compound 0.0316 µM
[26] = second compound 0.0949 µM, first compound 0.1 µM
[27] = second compound 0.0949 µM, first compound 0.316 µM
[28] = second compound 0.0949 µM, first compound 1 µM
[29] = second compound 0.0949 µM, first compound 3.16 µM
[30] = second compound 0.0949 µM, first compound 10 µM
[31] = second compound 0.3 µM, first compound 0.0316 µM
[32] = second compound 0.3 µM, first compound 0.1 µM
[33] = second compound 0.3 µM, first compound 0.316 µM
[34] = second compound 0.3 µM, first compound 1 µM
[35] = second compound 0.3 µM, first compound 3.16 µM
[36] = second compound 0.3 µM, first compound 10 µM
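Further: viability read after seven days of compound exposure.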

For `CC(Nc1ccc2c(c1)OCCn1cc(N3C(=O)OCC3C(F)F)nc1-2)C(N)=O` (centres undefined) + CCn1c(-c2cc(N3CCN(C)CC3)cnc2C(C)OC)c2c3cc(ccc31)-c1csc(n1)CC(NC(=O)C1CC1C)C(=O)N1CCCC(N1)C(=O)OCC(C)(C)C2, the IC50 (second compound 0.000949 µM) was 77 nM, the IC50 (second compound 0.003 µM) was < 31.6 nM and the IC50 (second compound 0.00949 µM) was < 31.6 nM. The IC50 (second compound 0.03 µM) was < 31.6 nM, the IC50 (second compound 0.0949 µM) was < 31.6 nM and the IC50 (second compound 0.3 µM) was < 31.6 nM. It also gave a viability, T/C [1] of 58%, a viability, T/C [2] of 48.6% and a viability, T/C [3] of 29.5%. It also gave a viability, T/C [4] of 17.9%, a viability, T/C [5] of 15.6% and a viability, T/C [6] of 8.54%. For the same compound, the viability, T/C [7] was 46.8%, the viability, T/C [8] was 31.7% and the viability, T/C [9] was 23.1%. For the same compound, the viability, T/C [10] was 14.1%, the viability, T/C [11] was 10.7% and the viability, T/C [12] was 5.42%. It also gave a viability, T/C [13] of 28%, a viability, T/C [14] of 17.1% and a viability, T/C [15] of 17%. It also gave a viability, T/C [16] of 10.7%, a viability, T/C [17] of 9.87% and a viability, T/C [18] of 3.83%. The viability, T/C [19] was 17.1%, the viability, T/C [20] was 13.6% and the viability, T/C [21] was 10.8%. It also gave a viability, T/C [22] of 8.39%, a viability, T/C [23] of 6.08% and a viability, T/C [24] of 2.39%. For the same compound, the viability, T/C [25] was 15.7%, the viability, T/C [26] was 10.8% and the viability, T/C [27] was 9.99%. For the same compound, the viability, T/C [28] was 6.85%, the viability, T/C [29] was 4.41% and the viability, T/C [30] was 3.16%. The viability, T/C [31] was 16.4%, the viability, T/C [32] was 10.4% and the viability, T/C [33] was 7.76%. The viability, T/C [34] was 7.43%, the viability, T/C [35] was 5.53% and the viability, T/C [36] was 2.56%.

`C[C@@H](NC(=O)c1ncnc(N)c1Cl)c1ncc(C(=O)Nc2cc(C(F)(F)F)c(Cl)cn2)s1` + CCn1c(-c2cc(N3CCN(C)CC3)cnc2C(C)OC)c2c3cc(ccc31)-c1csc(n1)CC(NC(=O)C1CC1C)C(=O)N1CCCC(N1)C(=O)OCC(C)(C)C2 was tested, and the IC50 (second compound 0.000949 µM) was > 10000 nM, the IC50 (second compound 0.003 µM) was > 10000 nM and the IC50 (second compound 0.00949 µM) was < 31.6 nM. For the same compound, the IC50 (second compound 0.03 µM) was < 31.6 nM, the IC50 (second compound 0.0949 µM) was < 31.6 nM and the IC50 (second compound 0.3 µM) was < 31.6 nM. For the same compound, the viability, T/C [1] was 84.4%, the viability, T/C [2] was 78.1% and the viability, T/C [3] was 85.8%. It also gave a viability, T/C [4] of 79.6%, a viability, T/C [5] of 89.8% and a viability, T/C [6] of 84.3%. It also gave a viability, T/C [7] of 68.9%, a viability, T/C [8] of 70% and a viability, T/C [9] of 67.5%. It also gave a viability, T/C [10] of 68.6%, a viability, T/C [11] of 74.6% and a viability, T/C [12] of 64.7%. The viability, T/C [13] was 41%, the viability, T/C [14] was 51.6% and the viability, T/C [15] was 48.4%. For the same compound, the viability, T/C [16] was 44%, the viability, T/C [17] was 53.6% and the viability, T/C [18] was 48.2%. It also gave a viability, T/C [19] of 22.9%, a viability, T/C [20] of 26.2% and a viability, T/C [21] of 28.8%. The viability, T/C [22] was 32.5%, the viability, T/C [23] was 34.7% and the viability, T/C [24] was 33.4%. It also gave a viability, T/C [25] of 19.8%, a viability, T/C [26] of 18.8% and a viability, T/C [27] of 19.8%. The viability, T/C [28] was 21.6%, the viability, T/C [29] was 24.3% and the viability, T/C [30] was 23.7%. For the same compound, the viability, T/C [31] was 15.4%, the viability, T/C [32] was 15.6% and the viability, T/C [33] was 19.1%. It also gave a viability, T/C [34] of 17.5%, a viability, T/C [35] of 19.6% and a viability, T/C [36] of 18.6%.
